{"source": "the kinase profiling compilation of Christmann-Franck et al. (2016)", "test_in_all_cases": "KINOMEscan competition binding", "conditions_in_all_cases": "compound 1.0 µM", "key": {"CLK4 (human)": {"biological_target": "CLK4 (human) (UniProt Q9HAZ1)"}, "CSNK1E (human)": {"biological_target": "CSNK1E (human) (UniProt P49674)"}, "CSNK2A1 (human)": {"biological_target": "CSNK2A1 (human) (UniProt P68400)"}, "CSNK2A2 (human)": {"biological_target": "CSNK2A2 (human) (UniProt P19784)", "sequence (P19784 whole entry, looked up)": "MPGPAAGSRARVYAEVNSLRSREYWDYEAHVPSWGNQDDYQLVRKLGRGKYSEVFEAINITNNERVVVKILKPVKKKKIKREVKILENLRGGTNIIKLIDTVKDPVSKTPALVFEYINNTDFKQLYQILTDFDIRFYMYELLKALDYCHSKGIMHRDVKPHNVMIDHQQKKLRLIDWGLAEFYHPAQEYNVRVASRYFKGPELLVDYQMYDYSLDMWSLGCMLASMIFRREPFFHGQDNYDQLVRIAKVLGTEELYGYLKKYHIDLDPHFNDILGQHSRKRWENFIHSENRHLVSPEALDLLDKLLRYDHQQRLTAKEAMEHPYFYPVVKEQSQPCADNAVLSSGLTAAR"}, "DSTYK (human)": {"biological_target": "DSTYK (human) (UniProt Q6XUX3)", "sequence (Q6XUX3 whole entry, looked up)": "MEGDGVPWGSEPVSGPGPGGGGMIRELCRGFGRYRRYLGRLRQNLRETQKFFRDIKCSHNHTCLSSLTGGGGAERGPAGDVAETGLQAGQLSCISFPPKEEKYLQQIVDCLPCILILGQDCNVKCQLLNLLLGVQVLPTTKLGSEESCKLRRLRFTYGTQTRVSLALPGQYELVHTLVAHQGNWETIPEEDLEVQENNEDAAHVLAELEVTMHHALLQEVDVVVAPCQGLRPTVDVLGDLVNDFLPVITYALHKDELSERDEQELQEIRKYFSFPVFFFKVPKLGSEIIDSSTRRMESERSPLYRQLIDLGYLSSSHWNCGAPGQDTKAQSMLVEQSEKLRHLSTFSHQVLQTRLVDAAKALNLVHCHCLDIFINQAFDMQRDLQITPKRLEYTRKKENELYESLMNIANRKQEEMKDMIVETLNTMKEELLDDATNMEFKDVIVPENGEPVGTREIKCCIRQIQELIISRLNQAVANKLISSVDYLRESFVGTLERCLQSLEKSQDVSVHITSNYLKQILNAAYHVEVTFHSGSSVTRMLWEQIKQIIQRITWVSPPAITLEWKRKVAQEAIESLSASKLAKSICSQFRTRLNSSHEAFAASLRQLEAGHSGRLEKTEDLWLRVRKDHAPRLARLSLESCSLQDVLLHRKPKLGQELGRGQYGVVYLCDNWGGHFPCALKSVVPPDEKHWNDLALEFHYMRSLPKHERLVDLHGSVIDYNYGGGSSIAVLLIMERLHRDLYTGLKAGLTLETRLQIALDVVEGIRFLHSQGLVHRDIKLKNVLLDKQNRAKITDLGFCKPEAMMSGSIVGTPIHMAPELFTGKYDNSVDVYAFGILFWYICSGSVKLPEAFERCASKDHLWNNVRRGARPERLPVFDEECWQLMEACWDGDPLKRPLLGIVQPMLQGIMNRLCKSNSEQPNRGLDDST"}, "[1]": {"tested_on": "EGFR (human), P00533 [747-751 del / S ins]"}, "[2]": {"tested_on": "EGFR (human), P00533 [T790M/L858R]"}, "EIF2AK1 (human)": {"biological_target": "EIF2AK1 (human) (UniProt Q9BQI3)"}, "ERBB2 (human)": {"biological_target": "ERBB2 (human) (UniProt P04626)"}, "FLT4 (human)": {"biological_target": "FLT4 (human) (UniProt P35916)"}, "GSK3A (human)": {"biological_target": "GSK3A (human) (UniProt P49840)"}, "HIPK3 (human)": {"biological_target": "HIPK3 (human) (UniProt Q9H422)"}, "IGF1R (human)": {"biological_target": "IGF1R (human) (UniProt P08069)"}, "[3]": {"tested_on": "KIT (human), P10721 [D816H]", "sequence (P10721 whole entry D816H, looked up)": "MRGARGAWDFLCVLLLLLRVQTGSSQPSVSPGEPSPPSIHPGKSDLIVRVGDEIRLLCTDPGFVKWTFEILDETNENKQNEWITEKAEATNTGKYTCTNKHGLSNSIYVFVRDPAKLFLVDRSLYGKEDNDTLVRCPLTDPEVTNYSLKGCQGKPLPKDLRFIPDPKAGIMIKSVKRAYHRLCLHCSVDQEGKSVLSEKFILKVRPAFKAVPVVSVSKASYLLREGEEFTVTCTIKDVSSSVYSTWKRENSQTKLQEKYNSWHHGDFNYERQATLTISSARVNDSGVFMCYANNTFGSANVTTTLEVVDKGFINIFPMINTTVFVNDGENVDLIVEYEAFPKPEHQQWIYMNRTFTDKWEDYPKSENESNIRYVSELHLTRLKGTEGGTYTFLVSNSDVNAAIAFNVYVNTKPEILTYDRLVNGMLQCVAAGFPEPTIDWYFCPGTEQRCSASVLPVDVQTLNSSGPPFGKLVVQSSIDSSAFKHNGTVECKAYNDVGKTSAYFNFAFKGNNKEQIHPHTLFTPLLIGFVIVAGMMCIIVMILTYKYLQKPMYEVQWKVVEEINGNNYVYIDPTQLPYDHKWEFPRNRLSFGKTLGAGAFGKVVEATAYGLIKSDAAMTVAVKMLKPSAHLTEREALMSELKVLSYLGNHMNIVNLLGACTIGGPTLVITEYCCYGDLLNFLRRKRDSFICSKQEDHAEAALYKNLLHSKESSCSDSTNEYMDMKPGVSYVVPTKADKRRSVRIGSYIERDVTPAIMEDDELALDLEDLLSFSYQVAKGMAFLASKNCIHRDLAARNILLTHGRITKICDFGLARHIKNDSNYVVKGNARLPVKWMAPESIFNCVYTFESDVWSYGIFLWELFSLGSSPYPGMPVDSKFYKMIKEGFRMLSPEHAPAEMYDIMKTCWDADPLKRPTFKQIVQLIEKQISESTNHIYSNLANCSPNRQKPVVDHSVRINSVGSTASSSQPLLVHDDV"}, "MAP4K4 (human)": {"biological_target": "MAP4K4 (human) (UniProt O95819)"}, "MAPK12 (human)": {"biological_target": "MAPK12 (human) (UniProt P53778)"}, "MAPKAPK2 (human)": {"biological_target": "MAPKAPK2 (human) (UniProt P49137)"}, "MARK1 (human)": {"biological_target": "MARK1 (human) (UniProt Q9P0L2)", "sequence (Q9P0L2 whole entry, looked up)": "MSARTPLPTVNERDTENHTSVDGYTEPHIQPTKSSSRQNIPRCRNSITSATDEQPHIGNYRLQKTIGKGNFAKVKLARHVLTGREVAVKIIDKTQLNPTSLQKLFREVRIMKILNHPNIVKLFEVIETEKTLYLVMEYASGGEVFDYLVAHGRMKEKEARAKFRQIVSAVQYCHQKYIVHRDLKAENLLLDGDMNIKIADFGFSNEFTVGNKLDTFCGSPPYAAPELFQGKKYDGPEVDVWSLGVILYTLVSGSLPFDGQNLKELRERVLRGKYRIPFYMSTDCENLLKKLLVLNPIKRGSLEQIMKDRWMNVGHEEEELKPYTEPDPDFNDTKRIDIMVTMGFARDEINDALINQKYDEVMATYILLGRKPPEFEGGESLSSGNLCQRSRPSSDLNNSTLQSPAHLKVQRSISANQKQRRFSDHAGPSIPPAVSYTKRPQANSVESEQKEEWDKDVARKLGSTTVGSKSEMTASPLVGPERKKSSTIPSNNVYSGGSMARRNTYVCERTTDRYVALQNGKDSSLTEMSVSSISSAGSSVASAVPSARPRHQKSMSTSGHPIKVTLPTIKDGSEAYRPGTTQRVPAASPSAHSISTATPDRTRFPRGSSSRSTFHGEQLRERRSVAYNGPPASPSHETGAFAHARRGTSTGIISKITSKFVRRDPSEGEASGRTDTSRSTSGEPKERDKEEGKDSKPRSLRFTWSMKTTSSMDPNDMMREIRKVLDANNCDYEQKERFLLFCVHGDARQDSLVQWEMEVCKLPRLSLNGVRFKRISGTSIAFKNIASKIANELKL"}, "MARK4 (human)": {"biological_target": "MARK4 (human) (UniProt Q96L34)"}, "MATK (human)": {"biological_target": "MATK (human) (UniProt P42679)"}, "MINK1 (human)": {"biological_target": "MINK1 (human) (UniProt Q8N4C8)"}, "MYLK3 (human)": {"biological_target": "MYLK3 (human) (UniProt Q32MK0)", "sequence (Q32MK0 whole entry, looked up)": "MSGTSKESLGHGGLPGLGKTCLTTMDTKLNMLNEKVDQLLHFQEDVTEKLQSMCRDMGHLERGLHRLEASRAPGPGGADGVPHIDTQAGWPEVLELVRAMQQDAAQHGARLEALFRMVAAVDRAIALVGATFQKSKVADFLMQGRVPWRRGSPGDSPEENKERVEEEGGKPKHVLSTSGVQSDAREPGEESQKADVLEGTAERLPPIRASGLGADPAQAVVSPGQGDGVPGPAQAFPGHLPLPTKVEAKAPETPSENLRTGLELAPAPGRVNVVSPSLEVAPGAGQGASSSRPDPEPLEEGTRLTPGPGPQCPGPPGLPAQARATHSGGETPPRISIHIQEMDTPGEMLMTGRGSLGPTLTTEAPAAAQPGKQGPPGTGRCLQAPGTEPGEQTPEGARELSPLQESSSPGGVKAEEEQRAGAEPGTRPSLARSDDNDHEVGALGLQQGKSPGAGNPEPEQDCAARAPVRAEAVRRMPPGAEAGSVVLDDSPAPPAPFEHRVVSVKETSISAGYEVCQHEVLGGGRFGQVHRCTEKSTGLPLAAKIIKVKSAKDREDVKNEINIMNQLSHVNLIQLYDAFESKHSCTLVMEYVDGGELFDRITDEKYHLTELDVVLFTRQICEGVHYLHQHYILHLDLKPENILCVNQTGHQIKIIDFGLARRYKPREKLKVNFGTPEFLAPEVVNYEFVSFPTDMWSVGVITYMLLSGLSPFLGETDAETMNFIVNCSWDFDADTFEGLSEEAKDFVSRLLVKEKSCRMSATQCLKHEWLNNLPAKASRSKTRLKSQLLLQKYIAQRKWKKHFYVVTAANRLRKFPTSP"}, "NUAK1 (human)": {"biological_target": "NUAK1 (human) (UniProt O60285)"}, "PIK3C2G (human)": {"biological_target": "PIK3C2G (human) (UniProt O75747)"}, "PIM1 (human)": {"biological_target": "PIM1 (human) (UniProt P11309)"}, "PIP4K2B (human)": {"biological_target": "PIP4K2B (human) (UniProt P78356)", "sequence (P78356 whole entry, looked up)": "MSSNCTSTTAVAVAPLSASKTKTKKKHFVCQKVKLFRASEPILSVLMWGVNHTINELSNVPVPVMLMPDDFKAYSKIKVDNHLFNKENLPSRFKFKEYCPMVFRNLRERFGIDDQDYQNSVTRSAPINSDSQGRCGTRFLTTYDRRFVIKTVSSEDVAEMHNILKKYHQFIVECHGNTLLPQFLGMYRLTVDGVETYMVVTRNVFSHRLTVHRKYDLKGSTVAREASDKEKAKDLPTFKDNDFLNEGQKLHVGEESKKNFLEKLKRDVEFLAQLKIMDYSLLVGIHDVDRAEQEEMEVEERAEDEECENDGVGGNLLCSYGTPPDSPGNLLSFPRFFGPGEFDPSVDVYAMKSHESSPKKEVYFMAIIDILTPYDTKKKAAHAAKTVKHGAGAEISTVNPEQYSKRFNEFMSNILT"}, "PRKAA2 (human)": {"biological_target": "PRKAA2 (human) (UniProt P54646)"}, "PRKD2 (human)": {"biological_target": "PRKD2 (human) (UniProt Q9BZL6)"}, "ROCK1 (human)": {"biological_target": "ROCK1 (human) (UniProt Q13464)"}, "SBK1 (human)": {"biological_target": "SBK1 (human) (UniProt Q52WX2)"}, "SGK3 (human)": {"biological_target": "SGK3 (human) (UniProt Q96BR1)"}, "SIK1 (human)": {"biological_target": "SIK1 (human) (UniProt P57059)", "sequence (P57059 whole entry, looked up)": "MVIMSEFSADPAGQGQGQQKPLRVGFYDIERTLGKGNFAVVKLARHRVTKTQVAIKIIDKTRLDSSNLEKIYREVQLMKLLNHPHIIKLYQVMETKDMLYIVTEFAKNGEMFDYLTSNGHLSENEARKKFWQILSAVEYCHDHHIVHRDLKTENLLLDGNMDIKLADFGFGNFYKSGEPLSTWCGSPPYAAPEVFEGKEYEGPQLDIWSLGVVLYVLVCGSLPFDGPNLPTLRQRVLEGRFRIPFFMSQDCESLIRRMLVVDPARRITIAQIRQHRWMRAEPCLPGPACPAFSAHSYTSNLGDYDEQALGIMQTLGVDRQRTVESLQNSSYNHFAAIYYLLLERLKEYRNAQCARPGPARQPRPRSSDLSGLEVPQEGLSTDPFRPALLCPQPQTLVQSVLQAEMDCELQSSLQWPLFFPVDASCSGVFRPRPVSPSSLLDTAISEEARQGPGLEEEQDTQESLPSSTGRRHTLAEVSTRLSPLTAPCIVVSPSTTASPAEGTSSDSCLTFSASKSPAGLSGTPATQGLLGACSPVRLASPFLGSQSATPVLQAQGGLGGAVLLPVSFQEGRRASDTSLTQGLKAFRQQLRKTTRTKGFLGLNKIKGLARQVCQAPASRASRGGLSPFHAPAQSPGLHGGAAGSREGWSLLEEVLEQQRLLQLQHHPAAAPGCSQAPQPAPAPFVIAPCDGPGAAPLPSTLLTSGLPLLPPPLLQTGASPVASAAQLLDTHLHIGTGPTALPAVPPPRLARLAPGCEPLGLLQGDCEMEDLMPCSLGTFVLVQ"}, "STK17B (human)": {"biological_target": "STK17B (human) (UniProt O94768)"}, "STK36 (human)": {"biological_target": "STK36 (human) (UniProt Q9NRP7)"}, "TAOK2 (human)": {"biological_target": "TAOK2 (human) (UniProt Q9UL54)"}, "TGFBR1 (human)": {"biological_target": "TGFBR1 (human) (UniProt P36897)"}, "TLK2 (human)": {"biological_target": "TLK2 (human) (UniProt Q86UE8)"}, "TTK (human)": {"biological_target": "TTK (human) (UniProt P33981)"}, "TXK (human)": {"biological_target": "TXK (human) (UniProt P42681)"}}, "data": [{"smiles": "CNc1nc(Nc2ccc(C(=O)N3CCOCC3)cc2OC)ncc1Cl", "values": [{"measurement": "kinase still bound, per cent of control", "setting": "CLK4 (human)", "value": 100, "unit": "%"}, {"measurement": "kinase still bound, per cent of control", "setting": "CSNK1E (human)", "value": 100, "unit": "%"}, {"measurement": "kinase still bound, per cent of control", "setting": "CSNK2A1 (human)", "value": 76, "unit": "%"}, {"measurement": "kinase still bound, per cent of control", "setting": "CSNK2A2 (human)", "value": 74, "unit": "%"}, {"measurement": "kinase still bound, per cent of control", "setting": "DSTYK (human)", "value": 100, "unit": "%"}, {"measurement": "kinase still bound, per cent of control", "setting": "[1]", "value": 100, "unit": "%"}, {"measurement": "kinase still bound, per cent of control", "setting": "[2]", "value": 100, "unit": "%"}, {"measurement": "kinase still bound, per cent of control", "setting": "EIF2AK1 (human)", "value": 100, "unit": "%"}, {"measurement": "kinase still bound, per cent of control", "setting": "ERBB2 (human)", "value": 100, "unit": "%"}, {"measurement": "kinase still bound, per cent of control", "setting": "FLT4 (human)", "value": 93, "unit": "%"}, {"measurement": "kinase still bound, per cent of control", "setting": "GSK3A (human)", "value": 100, "unit": "%"}, {"measurement": "kinase still bound, per cent of control", "setting": "HIPK3 (human)", "value": 47, "unit": "%"}, {"measurement": "residual activity", "setting": "IGF1R (human)", "value": 100, "unit": "%"}, {"measurement": "kinase still bound, per cent of control", "setting": "[3]", "value": 100, "unit": "%"}, {"measurement": "kinase still bound, per cent of control", "setting": "MAP4K4 (human)", "value": 77, "unit": "%"}, {"measurement": "kinase still bound, per cent of control", "setting": "MAPK12 (human)", "value": 100, "unit": "%"}, {"measurement": "kinase still bound, per cent of control", "setting": "MAPKAPK2 (human)", "value": 95, "unit": "%"}, {"measurement": "kinase still bound, per cent of control", "setting": "MARK1 (human)", "value": 45, "unit": "%"}, {"measurement": "kinase still bound, per cent of control", "setting": "MARK4 (human)", "value": 45, "unit": "%"}, {"measurement": "kinase still bound, per cent of control", "setting": "MATK (human)", "value": 100, "unit": "%"}, {"measurement": "kinase still bound, per cent of control", "setting": "MINK1 (human)", "value": 100, "unit": "%"}, {"measurement": "kinase still bound, per cent of control", "setting": "MYLK3 (human)", "value": 100, "unit": "%"}, {"measurement": "kinase still bound, per cent of control", "setting": "NUAK1 (human)", "value": 82, "unit": "%"}, {"measurement": "kinase still bound, per cent of control", "setting": "PIK3C2G (human)", "value": 71, "unit": "%"}, {"measurement": "kinase still bound, per cent of control", "setting": "PIM1 (human)", "value": 100, "unit": "%"}, {"measurement": "kinase still bound, per cent of control", "setting": "PIP4K2B (human)", "value": 83, "unit": "%"}, {"measurement": "kinase still bound, per cent of control", "setting": "PRKAA2 (human)", "value": 93, "unit": "%"}, {"measurement": "kinase still bound, per cent of control", "setting": "PRKD2 (human)", "value": 84, "unit": "%"}, {"measurement": "kinase still bound, per cent of control", "setting": "ROCK1 (human)", "value": 100, "unit": "%"}, {"measurement": "kinase still bound, per cent of control", "setting": "SBK1 (human)", "value": 100, "unit": "%"}, {"measurement": "kinase still bound, per cent of control", "setting": "SGK3 (human)", "value": 100, "unit": "%"}, {"measurement": "kinase still bound, per cent of control", "setting": "SIK1 (human)", "value": 100, "unit": "%"}, {"measurement": "kinase still bound, per cent of control", "setting": "STK17B (human)", "value": 14, "unit": "%"}, {"measurement": "kinase still bound, per cent of control", "setting": "STK36 (human)", "value": 100, "unit": "%"}, {"measurement": "kinase still bound, per cent of control", "setting": "TAOK2 (human)", "value": 88, "unit": "%"}, {"measurement": "kinase still bound, per cent of control", "setting": "TGFBR1 (human)", "value": 100, "unit": "%"}, {"measurement": "kinase still bound, per cent of control", "setting": "TLK2 (human)", "value": 100, "unit": "%"}, {"measurement": "kinase still bound, per cent of control", "setting": "TTK (human)", "value": 20, "unit": "%"}, {"measurement": "kinase still bound, per cent of control", "setting": "TXK (human)", "value": 100, "unit": "%"}]}]}
